Experimental findings from ChEMBL document CHEMBL1159116, “Discovery of C-imidazole azaheptapyridine FPT inhibitors” (Bioorg Med Chem Lett, 2010) are described below.

Data set [1] is described as follows: Inhibition of farnesyl protein transferase assessed as transfer of [3H]farnesyl from [3H]farnesyl pyrophosphate to […].
The test system of another data set is NIH3T3. In words: Cytotoxicity against mouse H-Ras transformed NIH/3T3 cells by soft agar colony formation assay. The class given is functional, cell-based.
Data set [2] is described as follows: (§1) AUC (0 to 6 hrs) in rat at 10 mg/kg. As to conditions: plasma; call rule not given here. The class given is ADME, organism-based, Plasma. Also noted: time < 6 hr, dose 10 mg/kg.
The test system of another data set is Rattus norvegicus. Described as §1. It counts as ADME, organism-based, Plasma. Also noted: time < 6 hr, dose 10 mg/kg. As to conditions: in vivo, 6 h.
Setting [3] is: Mus musculus, NIH3T3, read-out: IC50.

By IC50 is commonly meant the midpoint of a concentration-inhibition curve. For the molecule `Cn1cncc1[C@@H](O)C1=Cc2cccnc2[C@@H](N2CCN(C(=O)OC(C)(C)C)CC2)c2ccc(Cl)cc21`, the IC50 in data set [1] is 12 nM; with NIH3T3 (nih3t3), “Not Active”.

Regarding `Cn1cncc1CC1=Cc2cccnc2[C@@H](N2CCN(C(=O)Nc3ccc(C#N)cc3)CC2)c2ccc(Cl)cc21`, the IC50 in data set [1] was 0.29 nM; in the data set with NIH3T3 (setting [3]), 0.5 nM.

For `N#Cc1ccc(NC(=O)N2CCN([C@H]3c4ccc(Cl)cc4C(Cc4cnc[nH]4)=Cc4cccnc43)CC2)cc1`, the results for the IC50 (in data set [1]; in the data set with NIH3T3 (setting [3])) were 0.31 nM and 4 nM, respectively.

For orientation: AUC(0-t) means exposure summed from dosing to a finite time, without extrapolation to infinity. Higher therefore signals high exposure. Turning to `Cn1cncc1[C@H](O)C1=Cc2cccnc2[C@@H](N2CCN(C(=O)OC(C)(C)C)CC2)c2ccc(Cl)cc21`, the AUC(0-t) at 6 h in data set [2] was found to be 2.57 µM·h. Further, the values for the IC50 (in data set [1]; in the data set on NIH3T3 (setting [3])) were 0.38 nM and 0.5 nM, respectively.

As to `Cn1cncc1[C@H](O)C1=Cc2cccnc2[C@@H](N2CCN(C(=O)NC(C)(C)C)CC2)c2ccc(Cl)cc21`, the IC50 in data set [1] amounted to 0.4 nM; with NIH3T3 (setting [3]) it was 0.5 nM.

For `Cn1cncc1[C@H](O)C1=Cc2cccnc2[C@@H](N2CCN(C(=O)NCc3ccccc3)CC2)c2ccc(Cl)cc21`, the IC50 worked out at 0.13 nM in data set [1] and 2.7 nM in the data set on NIH3T3 (setting [3]).

In the case of `CC(C)OC(=O)N1CCN([C@H]2c3ccc(Cl)cc3C([C@@H](O)c3cncn3C)=Cc3cccnc32)CC1`, the IC50 worked out at 0.75 nM in data set [1] and 0.5 nM in the data set with NIH3T3 (setting [3]).

As a reminder, the AUC is the area under the concentration-time curve, a measure of exposure. A low value points to less exposure. As for `Cn1cncc1[C@H](O)C1=Cc2cccnc2[C@@H](N2CCN(C(=O)Nc3ccc(C#N)cc3)CC2)c2ccc(Cl)cc21`, the AUC in the data set on Rattus norvegicus was found to be 0.1 µM·h. For the same molecule, the IC50 (in data set [1]; in the data set on NIH3T3 (setting [3])) was 0.5 nM each time.

As for `Cn1cncc1[C@H](O)C1=Cc2cccnc2[C@@H](N2CCN(C(=O)NC3CCCCC3)CC2)c2ccc(Cl)cc21`, the figures for the IC50 (in data set [1]; with NIH3T3 (setting [3])) were 0.47 nM and 18 nM, respectively.

For the molecule `Cn1cncc1[C@H](O)C1=Cc2cccnc2[C@@H](N2CCN(C(=O)OC3(C)CCCCC3)CC2)c2ccc(Cl)cc21`, the IC50 in data set [1] is 0.3 nM; with NIH3T3 (setting [3]), 1 nM.

As for `Cn1cncc1CC1=Cc2cccnc2[C@H](N2CCN(C(=O)Nc3ccc(C#N)cc3)CC2)c2ccc(Cl)cc21`, the IC50 in data set [1] is 9.6 nM; in the data set with NIH3T3 (nih3t3), “Not Active”.

As to `CC(=O)O[C@H](C1=Cc2cccnc2[C@@H](N2CCN(C(=O)OC(C)(C)C)CC2)c2ccc(Cl)cc21)c1cncn1C`, the IC50 in data set [1] was determined as 5.5 nM; in the data set with NIH3T3 (setting [3]), 1 nM.

With `Cn1cncc1[C@H](O)C1=Cc2cccnc2[C@@H](N2CCN(C(=O)OC3CCCCC3)CC2)c2ccc(Cl)cc21`, the IC50 (in data set [1]; in the data set on NIH3T3 (setting [3])) was 1 nM throughout.

On to `Cn1cncc1[C@H](O)C1=Cc2cccnc2[C@@H](N2CCN(C(=O)OC3CCCC3)CC2)c2ccc(Cl)cc21`, for which the 50% inhibitory concentration (IC50) in data set [1] came to 0.76 nM; in the data set with NIH3T3 (setting [3]) it was 0.5 nM.

For the molecule `CO[C@H](C1=Cc2cccnc2[C@@H](N2CCN(C(=O)OC(C)(C)C)CC2)c2ccc(Cl)cc21)c1cncn1C`, the values for the IC50 (in data set [1]; in the data set with NIH3T3 (setting [3])) were 4.8 nM and 10 nM, respectively.

Consider `CO[C@@H](C1=Cc2cccnc2[C@@H](N2CCN(C(=O)OC(C)(C)C)CC2)c2ccc(Cl)cc21)c1cncn1C`, for which the IC50 in data set [1] was 2.1 nM; with NIH3T3 (setting [3]) it was 4 nM.
